Assay results taken from patent US20230331690A1, “THC DERIVATIVES, ORAL DOSAGE FORMS COMPRISING SAME, USES THEREOF FOR TREATING DISEASES AND DISORDERS AND SYNTHESIS THEREOF” (BAR-ILAN UNIVERSITY, priority 2020, published 2023).
Where “and” joins values, the source holds several entries; their conditions need not be identical. Equal entries are not always repeated.

Tested on: hind paw of mice
Test: Electronic Von-Frey mechanical sensitivity (withdrawal thresholds) after Paclitaxel-induced neuropathic pain
Format: in vivo
Details: for Withdrawal test, test 1 / Withdrawal test, test 4 / Withdrawal test, test 5 / Withdrawal test, test 6 / Withdrawal test, test 2 / Withdrawal test, test 3: per animal; for Withdrawal test, All group average: 8 mice; for Withdrawal test, Average: average per animal; for Withdrawal test, Change from b.l.: group average vs baseline; for Withdrawal test, test 6: additional test
Experimental: Mechanical sensitivity was evaluated by measuring the changes in tactile sensitivity in the hind paw of mice, using an Electronic Von-Frey apparatus (EVF). Withdrawal thresholds were measured, using the EVF apparatus, first at baseline (time=0) and then following drug, in a few periods after administration, by applying an accurate force on specific areas of the skin and measuring the needed force for the mouse to lift its paw.
Paclitaxel was utilized for the stimulation of a chemotherapy-induced neuropathic pain. Paclitaxel is anti-cancer chemotherapy drug classified as a “plant alkaloid” and an “antimicrotubule agent”.
Mice were divided into three groups of 8 mice each, as follows: • (a) Group no. 1—Morphine as positive control; • (b) Group no. […] 3—synthetic THC derivative 9-Desmethyl THC.
A portion of Paclitaxel was administered to each mouse by i.p. injection, on days 1, 3, 5 and 7 from the beginning of the experiment. At day 8, withdrawal thresholds were measured first at baseline (time=0), thereafter each mouse received a single portion of a drug substance, at 5 mg/Kg body weight concentration, by oral gavage and measurements took place.
The first checking point was 1 hour after administration of each drug. For every mouse, its threshold for the pain perception in which it removes its hind paw after the stabbing of the Von-Frey hair has been checked. Needed force (in gram force units) was measured each time and was recorded for every checking. This test was repeated 5 times for each mouse consecutively.
This procedure was repeated for all the three groups. The next checking point was 3 hours after administration, where the last withdrawal thresholds measurements were performed on the next morning, on day 9, which was 24 hours after administration.
Morphine was utilized as a positive control where group no. 1 mice received morphine (dissolved in a saline solution (0.9%) and injected subcutaneously) as an analgesic agent, prior to the mechanical sensitivity tests.
The tests described in this example are complicated and depend on numerous factors. Accordingly, results above 10.0 gram force (marked with an asterisk) were not included in the evaluation of the experimental data. In cases of exceptional results, an additional test was performed mouse (test 6) in order to assure the exceptional result.

[1] = t = 1 h after 5 mg/Kg, * values excluded
[2] = t = 3 h after 5 mg/Kg, * values excluded
[3] = t = 24 h after 5 mg/Kg, * values excluded

CCCCCc1cc(O)c2c(c1)OC(C)(C)[C@@H]1CCC=C[C@@H]21 [9-Desmethyl THC, 9-desmethyl-THC]
average decrease in the withdrawal thresholds (1 h after 5 mg/Kg, vs baseline): 10.2% | decrease compared to baseline in the withdrawal thresholds (3 h after 5 mg/Kg): 12.1% | Withdrawal test, test 1 (t = 1 h after 5 mg/Kg single dose (oral gavage; morphine s.c.), * values >10.0 excluded from evaluation): 4.0 gram force (2×) and 7.2 gram force and 5.1 gram force and 4.3 gram force and 4.9 gram force and 7.3 gram force and 5.3 gram force | Withdrawal test, All group average (t = 1 h after 5 mg/Kg): 5.55 gram force | Withdrawal test, Average (t = 1 h after 5 mg/Kg): 4.82 gram force and 5.82 gram force and 5.84 gram force and 6.20 gram force and 5.12 gram force and 5.18 gram force and 5.98 gram force and 5.42 gram force | Withdrawal test, Change from b.l. (t = 1 h after 5 mg/Kg): −10.2% | Withdrawal test, test 4 (t = 1 h after 5 mg/Kg): 5.3 gram force (2×) and 5.7 gram force and 4.0 gram force and 4.3 gram force (2×) and 5.4 gram force and 4.5 gram force | Withdrawal test, test 5 (t = 1 h after 5 mg/Kg): 4.3 gram force and 6.8 gram force (2×) and 4.4 gram force and 7.4 gram force and 4.6 gram force and 4.1 gram force and 5.6 gram force | Withdrawal test, test 6 (t = 1 h after 5 mg/Kg): 6.3 gram force and 5.3 gram force | Withdrawal test, test 2 [1]: 6.1 gram force (2×) and 4.7 gram force and 9.8 gram force and 9.4 gram force and 6.7 gram force and 5.7 gram force and 4.0 gram force | Withdrawal test, test 3 [1]: 4.4 gram force and 5.1 gram force and 4.2 gram force (2×) and 6.2 gram force and 5.7 gram force and 7.0 gram force and 7.7 gram force | Withdrawal test, All group average (t = 3 h after 5 mg/Kg): 5.43 gram force | Withdrawal test, Average (t = 3 h after 5 mg/Kg): 5.34 gram force and 5.02 gram force and 5.00 gram force and 5.62 gram force and 5.70 gram force (2×) and 5.22 gram force and 5.86 gram force | Withdrawal test, Change from b.l. (t = 3 h after 5 mg/Kg): −12.1% | Withdrawal test, test 2 (t = 3 h after 5 mg/Kg): 5.1 gram force and 4.6 gram force and 4.8 gram force (2×) and 8.6 gram force (2×) and 4.7 gram force and 5.5 gram force | Withdrawal test, test 4 (t = 3 h after 5 mg/Kg): 4.1 gram force and 5.0 gram force and 5.4 gram force (2×) and 9.5 gram force and 4.9 gram force and 6.0 gram force and 4.2 gram force | Withdrawal test, test 5 (t = 3 h after 5 mg/Kg): 4.7 gram force (2×) and 6.3 gram force and 4.2 gram force and 4.3 gram force and 6.5 gram force and 6.8 gram force and 7.0 gram force | Withdrawal test, test 6 (t = 3 h after 5 mg/Kg): 4.4 gram force and 4.9 gram force (2×) | Withdrawal test, test 1 [2]: 7.4 gram force and 5.0 gram force and 4.8 gram force and 4.3 gram force and 4.5 gram force and 4.6 gram force and 7.0 gram force and 6.8 gram force | Withdrawal test, test 3 [2]: 5.4 gram force and 4.2 gram force and 5.8 gram force and 5.2 gram force and 4.0 gram force (3×) and 4.6 gram force | Withdrawal test, All group average (t = 24 h after 5 mg/Kg): 5.36 gram force | Withdrawal test, Average (t = 24 h after 5 mg/Kg): 6.58 gram force and 4.80 gram force and 5.28 gram force and 6.12 gram force and 4.96 gram force and 4.74 gram force and 5.16 gram force and 5.26 gram force | Withdrawal test, Change from b.l. (t = 24 h after 5 mg/Kg): −13.3% | Withdrawal test, test 1 (t = 24 h after 5 mg/Kg): 5.4 gram force and 5.0 gram force (2×) and 4.2 gram force (3×) and 7.0 gram force and 7.1 gram force | Withdrawal test, test 2 (t = 24 h after 5 mg/Kg): 6.9 gram force and 4.1 gram force (3×) and 4.7 gram force and 5.6 gram force and 4.4 gram force and 4.5 gram force | Withdrawal test, test 3 (t = 24 h after 5 mg/Kg): 8.8 gram force and 4.1 gram force (2×) and 4.7 gram force and 4.2 gram force and 4.0 gram force and 5.6 gram force and 6.1 gram force | Withdrawal test, test 4 [3]: 4.4 gram force and 6.2 gram force and 8.1 gram force and 9.0 gram force and 5.0 gram force and 5.1 gram force and 7.6 gram force and 4.0 gram force | Withdrawal test, test 5 [3]: 7.4 gram force and 4.6 gram force (2×) and *10.0 gram force and 5.8 gram force and 7.3 gram force and 4.0 gram force (2×)
